{"source": "PubChem BioAssay AID1259410", "about": "(Chemical Carcinogenesis Research Information System (CCRIS), 2018)", "origin": "cited, not measured here", "test_system": "rodent tumor promotion studies, tumor incidence", "test": "CCRIS tumor promotion studies", "data": [{"smiles": "Clc1cnc(Oc2ccc(Oc3ncc(Cl)cc3Cl)cc2)c(Cl)c1", "values": [{"measurement": "outcome", "setting": "Carcinogen: N-NITROSODIETHYLAMINE, 55-18-5, Doses [Carcinogen]: 75 MG/KG BW ONCE, Doses [Promoter]: 0, 100O PPM IN DIET FOR DURATION OF STUDY BEGINNING 2 WK POST CARCINOGEN DOSE (STUDY DURATION: 74 WK), Route [Carcinogen]: INTRAPERITONEAL, Route [Promoter]: ORAL, Species: RAT, Strain/Sex: F344/MALE", "value": "liver: adenoma; thyroid: follicular cell adenoma"}, {"measurement": "outcome", "setting": "Carcinogen: N-NITROSODIETHYLAMINE, 55-18-5, Doses [Carcinogen]: 75 MG/KG BW ONCE, Doses [Promoter]: 0, 330 PPM IN DIET FOR DURATION OF STUDY BEGINNING 2 WK POST CARCINOGEN DOSE (STUDY DURATION: 74 WK), Route [Carcinogen]: INTRAPERITONEAL, Route [Promoter]: ORAL, Species: RAT, Strain/Sex: F344/MALE", "value": "liver: adenoma"}, {"measurement": "outcome", "setting": "Carcinogen: N-NITROSODIETHYLAMINE, 55-18-5, Doses [Carcinogen]: 75 MG/KG BW ONCE, Doses [Promoter]: 30 MG/KG IN CORN OIL 1/2 WK BEGINNING 2 WK POST CARCINOGEN DOSE AND CONTINUING FOR 71 WK (STUDY DURATION: 73 WK), Route [Carcinogen]: INTRAPERITONEAL, Route [Promoter]: INTRAPERITONEAL, Species: RAT, Strain/Sex: F344/MALE", "value": "nasal cavity: carcinoma"}, {"measurement": "outcome", "setting": "Carcinogen: N-NITROSODIETHYLAMINE, 55-18-5, Doses [Carcinogen]: 90 MG/KG BW ONCE, Doses [Promoter]: 3 MG/KG BW IN CORN OIL 1/2 WK BEGINNING 2 WK POST CARCINOGEN DOSE AND CONTINUING FOR 24 WK (STUDY DURATION: 55 WK), Route [Carcinogen]: INTRAPERITONEAL, Route [Promoter]: INTRAGASTRIC, Species: MOUSE, Strain/Sex: C57BL/MALE", "value": "liver: hepatocellular adenoma or carcinoma"}, {"measurement": "outcome", "setting": "Carcinogen: N-NITROSODIETHYLAMINE, 55-18-5, Doses [Carcinogen]: 90 MG/KG BW ONCE, Doses [Promoter]: 3 MG/KG BW IN CORN OIL 1/2 WK BEGINNING 2 WK POST CARCINOGEN DOSE AND CONTINUING FOR 24 WK (STUDY DURATION: 55 WK), Route [Carcinogen]: INTRAPERITONEAL, Route [Promoter]: INTRAGASTRIC, Species: MOUSE, Strain/Sex: DBA/MALE", "value": "liver: hepatocellular adenoma or carcinoma"}, {"measurement": "outcome", "setting": "Carcinogen: N-NITROSODIETHYLAMINE, 55-18-5, Doses [Carcinogen]: 90 MG/KG BW ONCE, Doses [Promoter]: 3 MG/KG BW IN CORN OIL 1/2 WK BEGINNING 2 WK POST CARCINOGEN DOSE AND CONTINUING FOR 24 WK (STUDY DURATION: 55 WK), Route [Carcinogen]: INTRAPERITONEAL, Route [Promoter]: INTRAPERITONEAL, Species: MOUSE, Strain/Sex: C57BL/MALE", "value": "liver: hepatocellular adenoma or carcinoma"}, {"measurement": "outcome", "setting": "Carcinogen: N-NITROSODIETHYLAMINE, 55-18-5, Doses [Carcinogen]: 90 MG/KG BW ONCE, Doses [Promoter]: 3 MG/KG BW IN CORN OIL 1/2 WK BEGINNING 2 WK POST CARCINOGEN DOSE AND CONTINUING FOR 24 WK (STUDY DURATION: 55 WK), Route [Carcinogen]: INTRAPERITONEAL, Route [Promoter]: INTRAPERITONEAL, Species: MOUSE, Strain/Sex: DBA/MALE", "value": "liver: hepatocellular adenoma or carcinoma"}]}, {"smiles": "[Na+]", "values": [{"measurement": "outcome", "setting": "Carcinogen: N-BUTYL-N-(4-HYDROXYBUTYL)NITROSAMINE, 3817-11-6, Doses [Carcinogen]: 0.05% IN DRINKING WATER FOR 4 WK, Doses [Promoter]: 0, 2.34% IN DIET BEGINNING POST LAST CARCINOGEN DOSE AND CONTINUING FOR 32 WK (STUDY DURATION: 37 WK), Route [Carcinogen]: ORAL, Route [Promoter]: ORAL, Species: RAT, Strain/Sex: WISTAR/MALE", "value": "urinary bladder: papilloma"}, {"measurement": "outcome", "setting": "Carcinogen: N-METHYL-N'-NITRO-N-NITROSOGUANIDINE, 70-25-7, Doses [Carcinogen]: 0.25 ML/10 G BW OF A 5 G/L DISTILLED WATER SOLUTION (7.5-8.8 MG/RAT) ONCE, Doses [Promoter]: 0, 10% IN DIET BEGINNING POST CARCINOGEN DOSE AND CONTINUING FOR STUDY DURATION (STUDY DURATION: 1 YR), Route [Carcinogen]: INTRAGASTRIC, Route [Promoter]: ORAL, Species: RAT, Strain/Sex: ACI/MALE", "value": "forestomach: squamous carcinoma"}, {"measurement": "outcome", "setting": "Carcinogen: N-METHYL-N'-NITRO-N-NITROSOGUANIDINE, 70-25-7, Doses [Carcinogen]: 25 UG/ML IN DRINKING WATER FOR 25 WK, Doses [Promoter]: 0, 10% IN DIET FOR 26 WK BEGINNING 1 WK POST CARCINOGEN TREATMENT (STUDY DURATION: 52 WK), Route [Carcinogen]: ORAL, Route [Promoter]: ORAL, Species: RAT, Strain/Sex: WISTAR/MALE", "value": "glandular stomach: adenocarcinoma"}, {"measurement": "outcome", "setting": "Carcinogen: N-METHYL-N'-NITRO-N-NITROSOGUANIDINE, 70-25-7, Doses [Carcinogen]: 100 PPM IN DRINKING WATER FOR 8 WK, Doses [Promoter]: 0, 5, 10% IN DIET FOR 82 WK BEGINNING POST CARCINOGEN TREATMENT (STUDY DURATION: 90 WK), Doses [Promoter]: 0, 5, 10% IN DIET FOR 82 WK BEGINNING POST CARCINOGEN TREATMENT (STUDY DURATION: 90 WK), Route [Carcinogen]: ORAL, Route [Promoter]: ORAL, Species: RAT, Strain/Sex: WISTAR/MALE", "value": "glandular stomach: adenoma or adenocarcinoma"}, {"measurement": "outcome", "setting": "Carcinogen: N-METHYL-N'-NITRO-N-NITROSOGUANIDINE, 70-25-7, Doses [Carcinogen]: 100 PPM IN DRINKING WATER FOR 10 WK, Doses [Promoter]: 0, 2.5, 5% IN DIET FOR 62 WK BEGINNING POST CARCINOGEN TREATMENT (STUDY DURATION: 72 WK), Doses [Promoter]: 0, 2.5, 5% IN DIET FOR 62 WK BEGINNING POST CARCINOGEN TREATMENT (STUDY DURATION: 72 WK), Route [Carcinogen]: ORAL, Route [Promoter]: ORAL, Species: RAT, Strain/Sex: WISTAR/MALE", "value": "stomach: adenocarcinoma"}, {"measurement": "outcome", "setting": "Carcinogen: N-[4-(5-NITRO-2-FURYL)-2-THIAZOLYL]FORMAMIDE, 24554-26-5, Doses [Carcinogen]: 0.2% IN DIET FOR 6 WK, Doses [Promoter]: 0, 1.34% IN PROLAB DIET FOR 72 WK BEGINNING POST CARCINOGEN TREATMENT (STUDY DURATION: 78 WK), Route [Carcinogen]: ORAL, Route [Promoter]: ORAL, Species: RAT, Strain/Sex: F344/MALE", "value": "urinary bladder: carcinoma, carcinoma and papilloma"}]}, {"smiles": "Cn1cnc([N+](=O)[O-])c1Sc1ncnc2nc[nH]c12", "values": [{"measurement": "outcome", "setting": "Carcinogen: UV IRRADIATION, Doses [Carcinogen]: 0.53 J/CM2 INCREASED BY 20% EVERY 2 WK TO 1.60 J/CM2 AND MAINTAINED AT 1.60 J/CM2 UNTIL DEATH, ADMINISTERED 5 D/WK FOR 1, Doses [Promoter]: 0, 15 UG/G BEGINNING 2 WK POST FIRST CARCINOGEN DOSE ADMINISTERED 2 HR PRIOR TO EACH CARCINOGEN DOSE (STUDY DURATION: 30, Route [Carcinogen]: DERMAL, Route [Promoter]: INTRAPERITONEAL, Species: MOUSE, Strain/Sex: SKH/HRL/FEMALE", "value": "skin: tumor"}]}, {"smiles": "CC/C=C/C=C/C=C/C=C/C=C/OC[C@@H](O)CO", "values": [{"measurement": "outcome", "setting": "Carcinogen: N-METHYL-N-NITROSOUREA, 684-93-5, Doses [Carcinogen]: 2 NG IN 0.5 ML WATER 3/WK FOR 3 WK, Doses [Promoter]: 0, 400 NG IN 0.5 ML BUFFER 2/WK FOR 24 WK BEGINNING 5 WK POST CARCINOGEN TREATMENT (STUDY DURATION: 32 WK), Route [Carcinogen]: INTRARECTAL, Route [Promoter]: INTRARECTAL, Species: RAT, Strain/Sex: F344/FEMALE", "value": "colon: carcinoma"}]}, {"smiles": "Cc1ccc2cc3c(ccc4ccccc43)c3c2c1CC3", "values": [{"measurement": "outcome", "setting": "Carcinogen: N-BIS(2-HYDROXYPROPYL)NITROSAMINE, 53609-64-6, N-ETHYL-N-HYDROXYETHYLNITROSAMINE, 13147-25-6, 3,2'-DIMETHYL-4-AMINOB, Carcinogen: N-BIS(2-HYDROXYPROPYL)NITROSAMINE, 53609-64-6, N-ETHYL-N-HYDROXYETHYLNITROSAMINE, 13147-25-6, 3,2'-DIMETHYL-4-AMINOB, Doses [Carcinogen]: 1000 MG/KG IP IN SALINE ON DAY 1 AND 4, 1500 MG/KG IG IN DISTILLED WATER ON DAY 8 AND 11, 75 MG/KG SC IN CORN OIL ON D, Doses [Carcinogen]: 1000 MG/KG IP IN SALINE ON DAY 1 AND 4, 1500 MG/KG IG IN DISTILLED WATER ON DAY 8 AND 11, 75 MG/KG SC IN CORN OIL ON D, Doses [Promoter]: 0, 0.02% IN DIET BEGINNING 1 WK POST LAST CARCINOGEN DOSE AND CONTINUING FOR 12 WK (STUDY DURATION: 16 WK), Route [Carcinogen]: INTRAPERITONEAL, GAVAGE, SUBCUTANEOUS, Route [Carcinogen]: INTRAPERITONEAL, GAVAGE, SUBCUTANEOUS, Route [Promoter]: ORAL, Species: RAT, Strain/Sex: F344/MALE", "value": "lung: adenoma or adenocarcinoma"}]}, {"smiles": "CCC(=O)Oc1ccc2c(c1)CC[C@@H]1[C@@H]2CC[C@]2(C)[C@@H](OC(=O)CC)CC[C@@H]12", "values": [{"measurement": "outcome", "setting": "Carcinogen: 1,2-DIMETHYLHYDRAZINE, 540-73-8, Doses [Carcinogen]: 8 MG/KG BW 1/WK FOR 20 WK, Doses [Promoter]: 0, 0.1 ML OF A SOLUTION IN OLIVE OIL 1/WK FOR 30 WK ADMINISTERED 1 DAY PRIOR TO EACH CARCINOGEN DOSE AND CONTINUING FOR, Route [Carcinogen]: SUBCUTANEOUS, Route [Promoter]: SUBCUTANEOUS, Species: MOUSE, Strain/Sex: C3H/FEMALE", "value": "uterus: sarcoma"}]}, {"smiles": "COc1c(N2C[C@@H]3CCCN[C@@H]3C2)c(F)cc2c(=O)c(C(=O)O)cn(C3CC3)c12", "values": [{"measurement": "outcome", "setting": "Carcinogen: N-METHYL-N-NITROSOUREA, 684-93-5, Doses [Carcinogen]: 4.5 MG/KG BW 1/WK FOR FIRST 10 WK, Doses [Promoter]: 0, 500 MG/KG BW/D FOR 24 WK BEGINNING 14 WK POST CARCINOGEN FIRST DOSE (STUDY DURATION: 38 WK), Route [Carcinogen]: GAVAGE, Route [Promoter]: GAVAGE, Species: RAT, Strain/Sex: WISTAR/MALE, FEMALE", "value": "forestomach: squamous cell papilloma, glandular stomach adenocarcinoma"}]}, {"smiles": "CN(C)CCOc1ccc(/C(=C(/CCCl)c2ccccc2)c2ccccc2)cc1", "values": [{"measurement": "outcome", "setting": "Carcinogen: DIETHYLNITROSAMINE, 55-18-5, Doses [Carcinogen]: 2.5 UG/G BW IN SALINE ONCE, Doses [Promoter]: 0, 0.5-1 MG IN PELLET IMPLANTED 1/MONTH FOR 30 WK BEGINNING 30 D POST CARCINOGEN TREATMENT (STUDY DURATION: 240 D), Route [Carcinogen]: INTRAPERITIONEAL, Route [Promoter]: SUBCUTANEOUS, Species: MOUSE, Strain/Sex: B6C3F1/FEMALE", "value": "liver: tumor"}]}]}
